Data: PMC10967427, “Polylactic Glycolic Acid-Mediated Delivery of Plectasin Derivative NZ2114 in Staphylococcus epidermidis Biofilms” (Antibiotics, 2024)

System: S. epidermidis G4 biofilm persister
Test: Effect on biofilm persisters, colony counting
Format: cell-based, Staphylococcus epidermidis
Settings: vancomycin 100× MIC, 24 h, induction of persisters
Protocol: The antibacterial effect of NZ2114 nanoparticles on the persistent bacteria in the biofilm was determined according to the previous study.

CN[C@H](CC(C)C)C(=O)N[C@H]1C(=O)N[C@@H](CC(N)=O)C(=O)N[C@H]2C(=O)N[C@H]3C(=O)N[C@H](C(=O)N[C@H](C(=O)O)c4cc(O)cc(O)c4-c4cc3ccc4O)[C@H](O)c3ccc(c(Cl)c3)Oc3cc2cc(c3O[C@@H]2O[C@H](CO)[C@@H](O)[C@H](O)[C@H]2O[C@H]2C[C@](C)(N)[C@H](O)[C@H](C)O2)Oc2ccc(cc2Cl)[C@H]1O [vancomycin]
Number of viable bacteria in the biofilm after vancomycin: 5.3 × 10^6 CFU/mL
